As usually defined, the IC50 is the point on the concentration scale where inhibition reaches its midpoint. Low readings indicate inhibition by little substance, high ones a need for much substance. By Ki is commonly meant a measure of affinity in units of concentration, obtained from inhibition or displacement. A low value points to tighter binding.

Among the data in BindingDB's records for doi:10.1016/j.bioorg.2017.01.016 (CSIR-Indian Institute of Chemical Biology, 2017) are IC50 and Ki values, retold here.

Each structure is given as a SMILES string. Positions count from the first letter of the chain named.

The target in assay [1] is T1, Seed linoleate 13S-lipoxygenase-1 (Glycine max, UniProt P08170).
T1 sequence (P08170 whole entry): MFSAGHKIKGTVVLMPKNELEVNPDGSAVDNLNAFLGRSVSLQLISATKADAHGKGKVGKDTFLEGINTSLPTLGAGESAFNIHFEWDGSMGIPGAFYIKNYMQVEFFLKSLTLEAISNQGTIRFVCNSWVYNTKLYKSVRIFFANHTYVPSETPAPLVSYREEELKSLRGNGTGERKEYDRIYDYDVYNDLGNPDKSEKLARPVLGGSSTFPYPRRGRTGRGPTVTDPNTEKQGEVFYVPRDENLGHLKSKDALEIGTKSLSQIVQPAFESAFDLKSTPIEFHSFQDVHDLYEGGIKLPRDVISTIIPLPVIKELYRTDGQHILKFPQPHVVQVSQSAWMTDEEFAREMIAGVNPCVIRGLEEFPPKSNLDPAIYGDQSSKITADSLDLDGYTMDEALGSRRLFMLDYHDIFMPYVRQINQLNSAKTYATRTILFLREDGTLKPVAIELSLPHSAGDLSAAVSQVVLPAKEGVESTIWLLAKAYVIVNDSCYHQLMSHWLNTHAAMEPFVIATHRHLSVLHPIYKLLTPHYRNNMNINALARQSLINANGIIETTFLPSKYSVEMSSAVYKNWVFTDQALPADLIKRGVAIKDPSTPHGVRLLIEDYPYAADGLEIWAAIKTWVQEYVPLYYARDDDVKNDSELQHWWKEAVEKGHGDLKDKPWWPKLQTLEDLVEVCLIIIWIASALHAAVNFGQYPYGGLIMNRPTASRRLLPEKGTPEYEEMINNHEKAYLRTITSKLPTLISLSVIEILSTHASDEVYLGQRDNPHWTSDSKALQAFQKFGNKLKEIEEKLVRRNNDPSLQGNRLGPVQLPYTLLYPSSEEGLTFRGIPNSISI
Nature of the assay: In Vitro Soybean Lipoxygenase (SLO) Inhibition Assay. Conditions: pH 8. An excerpt:
Following are the compositions of the blank, control and sample.

Another assay deals with T2, Lipoxygenase (Soybean, UniProt B3TDK4).
T2 sequence (B3TDK4 whole entry): T1 sequence (P08170 whole entry) with S160E
Nature of the assay: Molecular Docking. The method, then:
The crystal structure of soybean lipoxygenase-1 (PDB code: 3PZW), was used in our docking experiments. The 3D structure of 3PZW was reported by Chruszcz et al. [Chruszcz et al., Biophys. J., 95(1):1-9] using X-ray diffraction technique with a resolution of […] . The docking of ligands to the catalytic site of soybean lipoxygenase was performed using AutoDock 4.0 software (http://autodock.scripps.edu/).

Turning to `CCOC(=O)c1c(C)oc(-c2ccc(C)cc2)c1CC(=O)c1ccc(C)cc1` [2-Methyl-4-(2-oxo-2-p-tolyl-ethyl)-5-p-tolyl-furan-3-carboxylic acid ethyl ester (3d)], the 50% inhibitory concentration (IC50) in assay [1] was 22600 nM. The Ki at Lipoxygenase came to 246 nM.
The compound `CCOC(=O)c1c(C)oc(-c2ccccc2)c1CC(=O)c1ccccc1` [2-Methyl-4-(2-oxo-2-phenyl-ethyl)-5-phenyl-furan-3-carboxylic acid ethyl ester (3b)] yielded a half-inhibitory concentration (IC50) in assay [1] of 287000 nM. This compound also returned a Ki on Lipoxygenase of 868 nM.
On the same counts, the results for `COC(=O)c1c(C)oc(-c2ccccc2)c1CC(=O)c1ccccc1` [2-Methyl-4-(2-oxo-2-phenyl-ethyl)-5-phenyl-furan-3-carboxylic acid methyl ester (3a)] are 78500 nM and 662 nM.
The matching figures for `COC(=O)c1c(C)oc(-c2ccc(C)c(Cl)c2)c1CC(=O)c1ccc(C)c(Cl)c1` [5-(3-Chloro-4-methyl-phenyl)-4-[2-(3-chloro-4-methyl-phenyl)-2-oxo-ethyl)-2-methyl-furan-3-carboxylic acid methyl ester (3i)]: 47500 nM and 357 nM.
The matching figures for `CCOC(=O)c1c(C)oc(-c2ccc(Br)cc2)c1CC(=O)c1ccc(Br)cc1` [5-(4-Bromo-phenyl)-4[2-(4-bromo-phenyl)-2-oxo-ethyl]-2-methyl-furan-3-carboxylic acid ethyl ester (3f)]: 21200 nM and 141 nM.
On to `COC(=O)c1c(C)oc(-c2ccc(Br)cc2)c1CC(=O)c1ccc(Br)cc1` [5-(4-Bromo-phenyl)-4[2-(4-bromo-phenyl)-2-oxo-ethyl]-2-methyl-furan-3-carboxylic acid methyl ester (3e)], for which the IC50 in assay [1] is 12800 nM. Moreover, at Lipoxygenase, the inhibition constant (Ki) worked out at 70.9 nM.
The matching figures for `CCOC(=O)c1c(C)oc(-c2ccc(Cl)cc2)c1CC(=O)c1ccc(Cl)cc1` [5-(4-Chloro-phenyl)-4[2-(4-chloro-phenyl)-2-oxo-ethyl]-2-methyl-furan-3-carboxylic acid ethyl ester (3h)]: 32000 nM and 345 nM.
On the same counts, the results for `COC(=O)c1c(C)oc(-c2ccc(Cl)cc2)c1CC(=O)c1ccc(Cl)cc1` [5-(4-Chloro-phenyl)-4[2-(4-chloro-phenyl)-2-oxo-ethyl]-2-methyl-furan-3-carboxylic acid methyl ester (3g)] are 32500 nM and 313 nM.
Regarding `CC(Cc1ccc(O)c(O)c1)C(C)Cc1ccc(O)c(O)c1` (centres undefined) [LOX inhibitor, N/A], at Lipoxygenase, the Ki is 232 nM.
In turn, `COC(=O)c1c(C)oc(-c2ccc(C)cc2)c1CC(=O)c1ccc(C)cc1` [Methyl 2-methyl-5-(4-methylphenyl)-4-[2-(4-methylphenyl)-2-oxoethyl]furan-3-carboxylate (3c)] came in with an IC50 in assay [1] of 22100 nM. Further, the inhibitory constant (Ki) on Lipoxygenase was 178 nM.
